# Laboratory results: the supplement of paper PMC10307832
# Legend:
# Test in all cases: relative viability (nuclei count vs DMSO), 5 days (fraction); higher = more cells survive
# [1] = compound: CC[C@H](C)N1C=C(C2=C(C=C(C=C21)C3=CN=C(C=C3)N4CCNCC4)C(=O)NCC5=C(C=C(NC5=O)C)C)C [GSK126] + O=C(c1cc(Cc2n[nH]c(=O)c3ccccc23)ccc1F)N1CCN(C(=O)C2CC2)CC1 [Olaparib] (partner 8 µM)
# Procedure, shortened: (§1)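 Five library-drug doses in √10 steps were combined with a fixed anchor-drug dose, or a single drug was given alone, by pin tool to lung cancer cell lines in 1536-well plates the day after seeding. Nuclei were stained and counted after 5 days. Relative viability is the nuclei count in treated wells over that in vehicle wells, taken as the median of duplicate plates.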
# [2] = compound: CC[C@H](C)N1C=C(C2=C(C=C(C=C21)C3=CN=C(C=C3)N4CCNCC4)C(=O)NCC5=C(C=C(NC5=O)C)C)C [GSK126] + CS(=O)(=O)CCNCc1ccc(-c2ccc3ncnc(Nc4ccc(OCc5cccc(F)c5)c(Cl)c4)c3c2)o1 [Lapatinib] (partner 2 µM)
# Procedure, shortened: as §1
# [3] = compound: C1CC(C1)(C(=O)O)C(=O)O.[NH2-].[NH2-].[Pt+2] [Carboplatin] + CC(=O)c1c(C)c2cnc(Nc3ccc(N4CCNCC4)cn3)nc2n(C2CCCC2)c1=O [Palbociclib] (partner 0.5 µM)
# Procedure, shortened: as §1
# [4] = compound: C1CC(C1)(C(=O)O)C(=O)O.[NH2-].[NH2-].[Pt+2] [Carboplatin] + CS(=O)(=O)N1CCN(Cc2cc3nc(-c4cccc5[nH]ncc45)nc(N4CCOCC4)c3s2)CC1 [Pictilisib] (partner 1 µM)
# Procedure, shortened: as §1
Cell Line,relative viability ([1]; first compound 0.08 µM),relative viability ([1]; first compound 0.253 µM),relative viability ([1]; first compound 0.8 µM),relative viability ([1]; first compound 2.53 µM),relative viability ([1]; first compound 8 µM),relative viability ([2]; first compound 0.08 µM),relative viability ([2]; first compound 0.253 µM),relative viability ([2]; first compound 0.8 µM),relative viability ([2]; first compound 2.53 µM),relative viability ([2]; first compound 8 µM),relative viability ([3]; first compound 0.08 µM),relative viability ([3]; first compound 0.253 µM),relative viability ([3]; first compound 0.8 µM),relative viability ([3]; first compound 2.53 µM),relative viability ([3]; first compound 8 µM),relative viability ([4]; first compound 0.08 µM),relative viability ([4]; first compound 0.253 µM),relative viability ([4]; first compound 0.8 µM),relative viability ([4]; first compound 2.53 µM),relative viability ([4]; first compound 8 µM)
NCI-H1944,0.431,0.376,0.402,0.408,0.387,1.04,0.724,0.859,0.865,0.989,0.335,0.359,0.332,0.332,0.272,0.338,0.321,0.336,0.327,0.342
SK-LU-1,0.555,0.452,0.45,0.396,0.482,0.91,0.882,0.889,0.913,0.818,0.424,0.386,0.363,0.415,0.355,0.542,0.664,0.528,0.542,0.411
NCI-H1915,0.271,0.277,0.25,0.266,0.269,1.08,0.97,1.03,0.978,0.993,0.489,0.509,0.523,0.448,0.346,0.938,0.929,0.919,0.85,0.588
NCI-H650,0.446,0.373,0.363,0.405,0.389,0.833,0.838,0.97,0.978,0.955,0.318,0.337,0.332,0.276,0.232,0.948,1.03,0.826,0.791,0.562
SW 1573,0.609,0.542,0.582,0.621,0.49,1.09,1.07,0.989,1.27,1.28,0.484,0.438,0.43,0.369,0.273,0.408,0.603,0.492,0.555,0.399
NCI-H460,0.434,0.397,0.388,0.326,0.29,0.971,1.03,0.879,1.14,1.1,0.232,0.147,0.127,0.0559,0.052,0.379,0.356,0.352,0.321,0.213
COR-L23,0.422,0.33,0.33,0.354,0.387,1.04,0.958,0.943,0.914,0.818,0.32,0.303,0.226,0.196,0.123,0.933,0.782,0.735,0.512,0.253
NCI-H2009,0.755,0.653,0.714,0.588,0.713,1.23,0.893,0.985,0.942,1.06,0.203,0.202,0.182,0.207,0.183,0.825,0.816,0.761,0.79,0.558
PC-3 [JPC-3],1.1,1.14,1.09,1.15,1.12,0.43,0.489,0.527,0.477,0.462,0.537,0.577,0.511,0.526,0.512,0.912,0.684,0.761,0.701,0.706
NCI-H2085,0.77,0.784,0.764,0.771,0.762,0.922,0.847,0.78,0.803,0.78,0.473,0.486,0.462,0.456,0.452,0.525,0.502,0.477,0.458,0.399
EKVX,0.929,1,0.808,1.11,0.816,0.226,0.22,0.211,0.203,0.221,0.364,0.513,0.385,0.354,0.341,0.452,0.422,0.413,0.381,0.387
NCI-H1792,0.471,0.351,0.507,0.374,0.551,0.973,0.894,0.868,0.982,0.943,0.674,0.607,0.639,0.616,0.569,0.327,0.261,0.236,0.22,0.246
NCI-H2405,0.887,0.84,0.844,0.89,0.744,1.12,1.02,1.06,1.17,1.15,0.552,0.542,0.542,0.543,0.449,0.588,0.405,0.472,0.45,0.428
ABC-1,0.573,0.698,0.869,0.691,0.659,1.26,1.29,1.07,1.18,0.872,0.976,0.805,0.886,0.651,0.504,0.749,0.783,0.782,0.68,0.535
201T,0.867,0.845,0.831,0.906,0.886,1.04,1.04,1.09,1.1,1.16,0.374,0.356,0.37,0.336,0.362,0.69,0.667,0.736,0.684,0.634
NCI-H1755,0.9,0.922,0.877,0.826,0.822,1.1,1.07,1.04,1.01,1.1,0.477,0.501,0.515,0.441,0.461,0.432,0.442,0.407,0.417,0.391
